How the values were obtained:
[1] = Biodistribution and PET statements pooled over Kelly and SK-N-BE(2)C xenograft-bearing mice; assay type: in vivo; conditions: 1 h p.i.
Method: When the tumours reached approximately 100–200 mm^3, mice were anaesthetised with an isoflurane/O2 mixture (1.5–2.0% v/v) and intravenously injected with either ^18F-mFBG (~ 7.5 MBq) or ^123I-mIBG (~ 20 MBq). Mice were then imaged using an Albira PET/SPECT/CT scanner (Bruker, Coventry, UK). […] Acquisition, reconstruction and image analysis were performed as described previously. Following the final scan, the mice were sacrificed and the major organs were excised, weighed and their associated radioactivity was measured using a γ-counter. Biodistribution and image quantification were expressed as a percentage of injected dose per gram of tissue (%ID/g), whereby 1 cm^3 on PET acquisitions were assumed to equal 1 g (n ≥ 3 mice ± SD).

Kelly xenografts = assay: Ex vivo biodistribution (γ-counter), mice bearing Kelly xenografts; assay type: in vivo; conditions: for ^18F-mFBG biodistribution 4 h p.i., Blood / ^18F-mFBG biodistribution 4 h p.i., Bone / ^18F-mFBG biodistribution 4 h p.i., Brown adipose / ^18F-mFBG biodistribution 4 h p.i., Heart / ^18F-mFBG biodistribution 4 h p.i., Kidney / ^18F-mFBG biodistribution 4 h p.i., Liver / ^18F-mFBG biodistribution 4 h p.i., Lungs / ^18F-mFBG biodistribution 4 h p.i., Muscle / ^18F-mFBG biodistribution 4 h p.i., Pancreas / ^18F-mFBG biodistribution 4 h p.i., Small intestine / ^18F-mFBG biodistribution 4 h p.i., Spleen / ^18F-mFBG biodistribution 4 h p.i., Tumour / ^18F-mFBG biodistribution 4 h p.i., Tumour:blood / ^18F-mFBG biodistribution 4 h p.i., Tumour:muscle: Kelly, 3 days
Method: All studies were conducted in compliance with licenses issued under the UK Animals (Scientific Procedures) Act 1986 and approved by the Institute of Cancer Research Animal Welfare and Ethical Review Body (AWERB) according to the United Kingdom National Cancer Research Institute Guidelines for Animal Welfare in Cancer Research (project license PCC916B22, Animals in Science Regulation Unit, Home Office Science, London, UK)[65]. Female Nu(NCr)-Foxn1nu mice (5–7 weeks; 20–22 g) obtained from an in-house breeding colony were used in the studies. Animals were housed in a temperature-controlled facility with 12 h on–12 h off light cycle and provided water and laboratory rodent food ad libitum. Subcutaneous xenografts were generated by injection of either Kelly (5 × 10^6/0.1 mL PBS/Matrigel 30% v/v; BD Matrigel Matrix, BD Bioscience, San Jose, California, US) or SK-N-BE(2)C (1 × 10^6/0.1 mL PBS/Matrigel) into the lower flank. For the treatment studies, AZD2014 stock solution in DMSO was diluted in PEG400 to a final concentration of 2 mg/mL (10% DMSO maximum). When tumours reached ~ 100 mm^3 (calliper measurements using formula: Volume = (Width(2) × Length)/2), mice were treated daily, for a total of either 1, 3 or 7 days, by oral gavage with AZD2014 (20 or 25 mg/kg/day) or vehicle control. Mice were monitored daily for body weight or other adverse effects.
When the tumours reached approximately 100–200 mm^3, mice were anaesthetised with an isoflurane/O2 mixture (1.5–2.0% v/v) and intravenously injected with either ^18F-mFBG (~ 7.5 MBq) or ^123I-mIBG (~ 20 MBq). Mice were then imaged using an Albira PET/SPECT/CT scanner (Bruker, Coventry, UK). Whole body PET static images were acquired after 1 and 4 h post-injection (p.i.) for 10 min with an energy window of 358 to 664 keV followed by CT acquisition. Acquisition, reconstruction and image analysis were performed as described previously. Following the final scan, the mice were sacrificed and the major organs were excised, weighed and their associated radioactivity was measured using a γ-counter. Biodistribution and image quantification were expressed as a percentage of injected dose per gram of tissue (%ID/g), whereby 1 cm^3 on PET acquisitions were assumed to equal 1 g (n ≥ 3 mice ± SD).

**Q.** Which results are given for `N=C(N)NCc1cccc([18F])c1` [^18F-mFBG, ^18F-meta-fluorobenzylguanidine]?
**A.** radiotracer uptake, brown adipose tissue (BAT) [1]: > 7.0 %ID/g; radiotracer uptake, heart [1]: > 12.0 %ID/g; radiotracer uptake, small intestine [1]: ~ 8.0 %ID/g; tumour uptake (Kelly xenografts; Kelly xenografts, 4 h p.i., n = 3): 0.30 ± 0.14 %ID/g; ^18F-mFBG biodistribution 4 h p.i., Blood (Kelly xenografts; AZD2014 (25 mg/kg/day)): 0.19 ± 0.03 %ID/g; ^18F-mFBG biodistribution 4 h p.i., Bone (Kelly xenografts; AZD2014 (25 mg/kg/day)): 0.99 ± 0.07 %ID/g; ^18F-mFBG biodistribution 4 h p.i., Brown adipose (Kelly xenografts; AZD2014 (25 mg/kg/day)): 7.20 ± 0.88 %ID/g; ^18F-mFBG biodistribution 4 h p.i., Heart (Kelly xenografts; AZD2014 (25 mg/kg/day)): 4.22 ± 0.85 %ID/g; ^18F-mFBG biodistribution 4 h p.i., Kidney (Kelly xenografts; AZD2014 (25 mg/kg/day)): 0.97 ± 0.17 %ID/g; ^18F-mFBG biodistribution 4 h p.i., Liver (Kelly xenografts; AZD2014 (25 mg/kg/day)): 2.08 ± 0.45 %ID/g; ^18F-mFBG biodistribution 4 h p.i., Lungs (Kelly xenografts; AZD2014 (25 mg/kg/day)): 1.31 ± 0.39 %ID/g; ^18F-mFBG biodistribution 4 h p.i., Muscle (Kelly xenografts; AZD2014 (25 mg/kg/day)): 0.64 ± 0.17 %ID/g; ^18F-mFBG biodistribution 4 h p.i., Pancreas (Kelly xenografts; AZD2014 (25 mg/kg/day)): 1.25 ± 0.21 %ID/g; ^18F-mFBG biodistribution 4 h p.i., Small intestine (Kelly xenografts; AZD2014 (25 mg/kg/day)): 7.30 ± 1.11 %ID/g; ^18F-mFBG biodistribution 4 h p.i., Spleen (Kelly xenografts; AZD2014 (25 mg/kg/day)): 4.58 ± 0.77 %ID/g; ^18F-mFBG biodistribution 4 h p.i., Tumour (Kelly xenografts; AZD2014 (25 mg/kg/day)): 0.74 ± 0.25 %ID/g; ^18F-mFBG biodistribution 4 h p.i., Tumour:blood (Kelly xenografts; AZD2014 (25 mg/kg/day)): 4.16 ± 1.89; ^18F-mFBG biodistribution 4 h p.i., Tumour:muscle (Kelly xenografts; AZD2014 (25 mg/kg/day)): 1.23 ± 0.61; ^18F-mFBG biodistribution 4 h p.i., Blood (Kelly xenografts; Vehicle): 0.22 ± 0.05 %ID/g; ^18F-mFBG biodistribution 4 h p.i., Bone (Kelly xenografts; Vehicle): 1.43 ± 0.83 %ID/g; ^18F-mFBG biodistribution 4 h p.i., Brown adipose (Kelly xenografts; Vehicle): 5.84 ± 2.44 %ID/g; ^18F-mFBG biodistribution 4 h p.i., Heart (Kelly xenografts; Vehicle): 6.34 ± 1.41 %ID/g; ^18F-mFBG biodistribution 4 h p.i., Kidney (Kelly xenografts; Vehicle): 1.11 ± 0.47 %ID/g; ^18F-mFBG biodistribution 4 h p.i., Liver (Kelly xenografts; Vehicle): 2.37 ± 0.71 %ID/g; ^18F-mFBG biodistribution 4 h p.i., Lungs (Kelly xenografts; Vehicle): 1.52 ± 0.22 %ID/g; ^18F-mFBG biodistribution 4 h p.i., Muscle (Kelly xenografts; Vehicle): 0.74 ± 0.23 %ID/g; ^18F-mFBG biodistribution 4 h p.i., Pancreas (Kelly xenografts; Vehicle): 1.26 ± 0.28 %ID/g; ^18F-mFBG biodistribution 4 h p.i., Small intestine (Kelly xenografts; Vehicle): 6.57 ± 1.12 %ID/g; ^18F-mFBG biodistribution 4 h p.i., Spleen (Kelly xenografts; Vehicle): 3.77 ± 0.82 %ID/g; ^18F-mFBG biodistribution 4 h p.i., Tumour (Kelly xenografts; Vehicle): 0.39 ± 0.13 %ID/g; ^18F-mFBG biodistribution 4 h p.i., Tumour:blood (Kelly xenografts; Vehicle): 1.75 ± 0.29; ^18F-mFBG biodistribution 4 h p.i., Tumour:muscle (Kelly xenografts; Vehicle): 0.53 ± 0.01
